Reference: patent publication US6387907B1, “Use of serotonin agonists to alleviate disordered breathing episodes in a mammal” (The Trustees of the University of Pennsylvania, priority 1997, dated 2002)

Tests used:
Format in all cases: in vivo, English bulldog
English bulldogs [1] = assay: Upper airway dilator muscle (GH, SH) EMG activity during wakefulness after i.v. serotonin antagonist; settings: mean±SE; for GH peak amplitude, mean: baseline 11.86±2.17; for SH amplitude: baseline 14.41±3.93
From the text: Following the baseline sleep study to document sleep-disordered breathing, each dog underwent a surgical procedure for the implantation of recording electrodes. For this procedure, dogs were premedicated with 5 to 10 micrograms per kilogram body weight atropine sulfate intramuscularly. In the cases of two bulldogs experiencing severe sleep-disordered breathing, intubation and general anesthesia were thought to pose a significant risk for postoperative respiratory failure. These two dogs were therefore sedated only using 20 to 40 micrograms per kilogram body weight oxymorphone administered intramuscularly. The six remaining dogs were anesthetized initially with sodium thiopental (15 to 30 milligrams per kilogram body weight) administered intravenously. The dogs were intubated and maintained under general anesthesia using 0.5 to 2.5% (v/v) inhalational halothane throughout the procedure.
Recording electrodes were implanted for the study of diaphragm and upper airway dilator muscle activity. Electrodes were fashioned from 0.7 millimeter multi-stranded Teflon-coated stainless steel wire. The insulation was stripped from 5 to 8 millimeters at the proximal tip. The proximal tip of each electrode was implanted transcutaneously into the relevant musculature using methods described by Basmajian et al. (1962, J. Appl. Physiol. 17:839).
(§1) Five diaphragm electromyographic (DIA EMG) electrodes were implanted in the costal musculature of the right hemidiaphragm 7 to 9 centimeters lateral to the xyphoid process. Three other electrodes were embedded into the right sternohyoid (SH) muscle and, three more were embedded into the right geniohyoid (GH) muscle. Both SH and GH muscles are readily palpable in the English bulldog.
Two ground electrodes were embedded transcutaneously contacting both the occipital skull and dorsal neck musculature. Distal tips of all electrodes were soldered onto a 25-pin Winchester-type connector. Electrodes and the connector were secured to each dog with elastic adhesive dressings over the torso and neck.
(§2) All studies were conducted using an unrestrained dog, either housed within a well-ventilated, electronically shielded, clear Plexiglass™ recording chamber or seated atop a table in the recording room. In either case, an investigator remained with the dog throughout the study to observe the dog's head and neck movements and to document the behavioral state of the dog. EMG signals were band-pass filtered at 50 to 2,000 Hertz. DIA EMG signals were passed through an analog EKG blanker (CWE EKG blanker; CWE, Ardmore, Pa.) and then through a third-order Paynter filter (CWE MA) having a 100-millisecond time constant to obtain a moving average of the DIA EMG. Signals of the SH and GH EMG were also passed through Paynter filters with the same time constants (100 ms) to obtain moving averages of these signals. Oxyhemoglobin saturation was measured continuously with a Biox IIA oximeter attached to the dog's pinna. Signals for the GH EMG, GH moving average (MA), SH EMG, SH MA, DIA EMG, DIA MA, and oxyhemoglobin saturations were recorded polygraphically (10 millimeters per second) using a chart recorder with high frequency response, i.e., as much as 10 kHz (Gould ES1000; Gould Instruments, Cleveland, Ohio). Signals were also recorded on analog tape using an eight-channel FM tape recorder (A. R. Vetter, Roseburg, Pa.).
The effects of serotonin antagonists on upper airway dilator muscle activity and breathing during wakefulness were assessed. Serotonin antagonists which were administered were methysergide maleate and ritanserin.
Ritanserin is a relatively selective serotonin antagonist at types 1C and 2 serotonin receptors (Devaud et al., 1992, J. Neurochem. 59:1459-1466). Ritanserin was selected for study on the basis that the IC and 2 subtypes of serotonin receptors appear to be involves in serotonin facilitation of hypoglossal motoneurons in vivo (Kugin et al., supra). […]

English bulldogs [2] = assay: Diaphragm (DIA) EMG activity during wakefulness after i.v. serotonin antagonist
Method: as §1, §2
(§3) After obtaining baseline recordings of all variables for at least 5 minutes during quiet wakefulness and after obtaining recordings during the 5 minutes following administration of a saline control injection, 0.25 to 0.50 milligrams per kilogram body weight of one of the serotonin antagonists was administered to each dog through a peripheral intravenous line. All variables were continuously recorded. Injections were repeated every 6 minutes either until a total dose of 1 milligram per kilogram body weight had been administered or until the oxygen saturations fell below 85%. These limits were deemed to ensure the dogs' safety, based on an initial study using one dog. This dog, EBD-G was hypoxic at baseline and developed profound reductions in UAW muscle activity with desaturations to 75% after a total dose of 1.0 milligram per kilogram body weight of methysergide. The interval between repeated injections was selected to be 6 minutes to allow for 5 minute sampling periods for each dose. The duration of action of serotonin antagonists is known to be greater than 60 minutes (Bredberg et al., supra; Devaud et al., supra).
The effects of serotonin antagonists on diaphragm activity were similarly analyzed. Briefly, the measures of diaphragm activity were the peak amplitudes for all respiratory bursts in each condition. […] Acquisition of these measures has also been previously described (Hendricks et al., 1991, Am. Rev. Respir. Dis. 144:1112-1120). Mean values across all respiratory bursts of a 5 minute sample period were determined for each dog, and these values were used to perform repeated measures of ANOVA comparing baseline values with post-administration values.

English bulldogs [3] = assay: Waking oxyhemoglobin saturation (SaO2) after i.v. serotonin antagonist; settings: for mean SaO2: mean±SE
Method: as §2, §3
The effects of ritanserin and methysergide on oxyhemoglobin saturations were analyzed in a similar fashion; i.e., repeated measures of ANOVA for baseline and drug dose conditions. Oxyhemoglobin saturation was measured every 10 scans.

English bulldogs [4] = assay: Respiratory timing from DIA moving average signals
From the text: Respiratory timing variables were obtained from the DIA MA signals, using methods previously described to determine inspiratory time (T1), expiratory time (TE), total time of a respiratory burst (Ttot), and the duty cycle ratio (T1/Ttot) (Hendricks et al., 1987, J. Appl. Physiol. 63:1344-1350; Hendricks et al., 1991, Am Rev. Respir. Dis. 144:1112-1120).

English bulldogs [5] = assay: Cine CT imaging of the upper airway before and after ritanserin; settings: 0.5 mg/kg i.v.
Method: The effect of administering a serotonin antagonist on upper airway dimensions during a respiratory cycle was determined by performing cinematic computed tomography (cine CT) on dogs before and after administration of the antagonists. Cine CT allows both high spatial and temporal resolution (Shepard et al., 1990, In: Proceedings of the First International Symposium on Sleep and Respiration, New York, 273-282; Schwab et al., 1993, Am. Rev. Respir. Dis. 148:1385-1400), and has been used to define dynamic changes in the upper airways of humans in relation to the phases of the respiratory cycle (Schwab et al., 1993, Am. Rev. Respir. Dis. 148:1385-1400; Galvin et al., 1989, Radiology 171:775-778; Schwab et al., 1993, J. Appl. Physiol. 74:1504-1514). An Imatron C-100 ultrafast scanner (Imatron Inc., South San Francisco, Calif.) was used for these studies.
Dogs were studied during wakefulness. All dogs were trained prior to the study to lie quietly on a table similar to the CT scanner table for periods as long as one hour. However, to maintain constant head and body position throughout the study, each dog wore a nylon vest secured to the table at the shoulder and hips. Lateral radiographs of the neck were performed initially so that the head and neck were positioned with a 110 to 130 degree angle between the hard palate and the upper trachea.
Once the angle was confirmed, the head was gently secured in place to the scanner table with elastic dressing tape. With the dog comfortably secured in place, a scout filming of the airways was performed with 40 consecutive 3-millimeter-thick coronal slices imaged from the region of the nasopharynx through the larynx. For each dog, these images were used to select four standard areas of study for all dogs. […] For each dog, the areas which were imaged included the posterior nasopharynx (at the level of pterygoid fossa in the dog), the retropalatal high area (at the midhyoid arch level), the retropalatal low area (at the level of the anterior hyoid bone), and the larynx.
Prior to imaging, each dog was connected as described above for monitoring geniohyoid, sternohyoid, and diaphragm muscle activity, respiratory inductive plethysmography, and oxyhemoglobin saturation. During quiet breathing, 20 consecutive images at 0.4-second intervals were obtained simultaneously at each of the four described levels. This program allowed for the description of the dynamic changes in airway dimensions over four to seven breaths at all four anatomic levels simultaneously. The image acquisition time for each radiograph was 50 milliseconds, and images were 3 millimeters thick. Imaging studies were rejected and repeated if the respiratory activity was interrupted at any time during imaging by swallowing, sighing (defined for this study as a diaphragm burst 200% greater in amplitude than the previous 10 bursts), licking, or panting, the latter being defined as a respiratory frequency of more than 60 diaphragmatic respiratory bursts per minute. Cine CT scanner impulses marking the timing for all images were transmitted to the polygraph with continuing signals of all objective measures, i.e., GH, SH, and DIA EMG activity, oxyhemoglobin saturation, and chest wall plethysmography. […]
This study quantified the effects of the serotonin antagonist, ritanserin, on the cross-sectional area of the upper airway and its dynamic changes during the respiratory cycle. […]

English bulldogs [6] = assay: Direct observation of behavior after serotonin antagonists; settings: i.v. during quiet wakefulness; several dogs
From the text: The behavior of the dogs was observed directly throughout this study and for several hours following the last injection by one investigator seated adjacent the dog. The investigator documented both behavioral state and movement and helped the dog to maintain wakefulness throughout the study.

[7] = 0.50 mg/kg i.v., baseline ritanserin 14.41±3.93, methysergide 5.75±0.18
[8] = 0.50 mg/kg i.v., mean±SE, baseline ritanserin 17.63±2.79, methysergide 7.07±2.37
[9] = 0.50 mg/kg i.v., baseline ritanserin 92.1±0.6, methysergide 90.3±2.7

Compound: Cc1nc2sccn2c(=O)c1CCN1CCC(=C(c2ccc(F)cc2)c2ccc(F)cc2)CC1 [ritanserin]
- GH peak amplitude, mean (English bulldogs [1]; 0.25 mg/kg i.v., four dogs): 6.42±1.12 arbitrary units
- SH amplitude (English bulldogs [1]; 0.25 mg/kg i.v.): 10.90±2.99 arbitrary units
- percent suppression of GH activity (English bulldogs [1]; 0.25 mg/kg i.v., quiet waking): 40.0±6.5%
- GH peak amplitude, mean (English bulldogs [1]; 0.50 mg/kg i.v. cumulative, four dogs): 7.23±2.01 arbitrary units
- SH peak amplitude (English bulldogs [1]; [7]): 9.08±1.32 arbitrary units
- GH peak amplitude, mean (English bulldogs [1]; 0.75 mg/kg i.v. cumulative, four dogs): 7.44±2.48 arbitrary units
- SH amplitude (English bulldogs [1]; 0.75 mg/kg i.v. cumulative): 7.43±0.55 arbitrary units
- DIA peak amplitude as percentage of the baseline value (English bulldogs [2]; 0.25 mg/kg i.v.): 85.76±3.30%
- DIA peak amplitude, mean (English bulldogs [2]; 0.25 mg/kg i.v., mean±SE, six dogs, baseline 17.63±2.79): 15.03±2.45 arbitrary units
- percent suppression of DIA activity (English bulldogs [2]; 0.25 mg/kg i.v., mean±SE, quiet waking, dogs with GH data): 17.0±3.6%
- DIA peak amplitude as percentage of the baseline value (English bulldogs [2]; 0.50 mg/kg i.v.): 95.22±5.81%
- DIA peak amplitude, mean (English bulldogs [2]; [8]): 16.12±2.30 arbitrary units
- DIA peak amplitude as percentage of the baseline value (English bulldogs [2]; 0.75 mg/kg i.v. cumulative): 87.33±5.18%
- DIA peak amplitude, mean (English bulldogs [2]; 0.75 mg/kg i.v. cumulative, mean±SE, six dogs, baseline 17.63±2.79): 14.98±2.06 arbitrary units
- mean SaO2 (English bulldogs [3]; 0.25 mg/kg i.v., baseline 92.1±0.6): 88.5±0.8%
- mean SaO2 (English bulldogs [3]; [9]): 87.6±1.2%
- mean SaO2 (English bulldogs [3]; 0.75 mg/kg i.v. cumulative, baseline 92.1±0.6): 88.6±0.5%
- TI/Ttot (duty cycle ratio) (English bulldogs [4]; 0.25 mg/kg, mean±SE, six dogs, baseline 0.50±0.02, NS): 0.52 ± 0.02
- TI (inspiratory time) (English bulldogs [4]; 0.25 mg/kg, mean±SE, six dogs, baseline 1.31±0.20, p 0.02): 1.03 ± 0.17 s
- TE (expiratory time) (English bulldogs [4]; 0.25 mg/kg, mean±SE, six dogs, baseline 1.32±0.20, p 0.04): 1.00 ± 0.23 s
- Ttot (total time of a respiratory burst) (English bulldogs [4]; 0.25 mg/kg, mean±SE, six dogs, baseline 2.60±0.30, p 0.03): 2.02 ± 0.30 s
- GH peak amplitude suppressed by (English bulldogs [5]; mean values for the two dogs): 51.1±1.8%
- chest wall respiratory movement amplitude reduced by (English bulldogs [5]; two dogs): 59.9%
- upper airway parameters during expiration (English bulldogs [5]; two dogs): no significant changes
- mean SaO2 after administration (English bulldogs [5]; two dogs, before 92.8±1.8): 86.2±4.7%
- airway CSA during both stages of inspiration (English bulldogs [5]; two dogs, individual ANOVAs p<0.01): significant reduction

Compound: CC[C@@H](CO)NC(=O)[C@@H]1C=C2c3cccc4c3c(cn4C)C[C@H]2N(C)C1 [methysergide]
- SH peak amplitude (English bulldogs [1]; [7]): 3.83±0.28 arbitrary units
- SH peak amplitude (English bulldogs [1]; 1.00 mg/kg i.v. cumulative, four dogs, baseline 5.75±0.18): 2.77±0.38 arbitrary units
- DIA peak amplitude as percentage of the baseline value (English bulldogs [2]; 0.50 mg/kg i.v.): 67.7%
- DIA peak amplitude, mean (English bulldogs [2]; [8]): 4.74±0.25 arbitrary units
- DIA peak amplitude as percentage of the baseline value (English bulldogs [2]; 1.0 mg/kg i.v. cumulative): 39.6%
- DIA peak amplitude, mean (English bulldogs [2]; 1.0 mg/kg i.v. cumulative, mean±SE, three dogs, baseline 7.07±2.37): 2.80±1.48 arbitrary units
- mean SaO2 (English bulldogs [3]; [9]): 86.6±2.0%
- mean SaO2 (English bulldogs [3]; 1.0 mg/kg i.v. cumulative, baseline 90.3±2.7): 85.6±0.9%
- oxygen desaturations in dog EBD-G (hypoxic at baseline) (English bulldogs [3]; total dose 1.0 mg/kg i.v., single dog, initial study): 75%
- TE reduced by (English bulldogs [4]; 0.50 mg/kg, three dogs): 33.8%
- TI reduced by (English bulldogs [4]; 0.50 mg/kg, three dogs): 12.7%
- Ttot reduced by (English bulldogs [4]; 0.50 mg/kg, three dogs): 23.9%
- behavior (head and neck movements, alertness) (English bulldogs [6]): increase in staring behaviors
